Source: patent publication US11952584B2, “Functional peptides having antimicrobial activity against phytopathogenic microorganisms” (TOYOTA JIDOSHA KABUSHIKI KAISHA, priority 2019, dated 2024)
“And” between values parts separate entries of the source, which are not always exact repeats. Identical values can stand only once. “Also recorded” adds a separate entry of the source. Like-named read-outs stand apart in the source and are kept apart here. Ends that are not written are not given here.

B1: mdfimlaaaivkesfiflligllaaILLSLEIFERKFSRSVWYYGFPAFSERTRKFWRIWKGK TS (peptide, listed as Solanum lycopersicum)
chain: MDFIMLAAAIVKESFIFLLIGLLAAILLSLEIFERKFSRSVWYYGFPAFSERTRKFWRIWKGKTS
notes: peptide of 65 amino acid residues from tomato xylem sap

Key:
[1] = tested on: Fusarium oxysporum; format: cell-based
[2] = tested on: Ralstonia solanacearum; settings: peptide 100 μM, 28° C. a whole day and night; for Inhibitory rate Ralstonia solanacearum: relative to water; for OD600 Ralstonia solanacearum: water control 2.6
[3] = tested on: Colletotrichum destructivum; format: cell-based; settings: for Plate antimicrobial activity test Colletotrichum destructivum (level): 25° C., 1 day or 2 days
[4] = tested on: Erwinia carotovora subsp. carotovora
[5] = tested on: Pyricularia oryzae; format: cell-based; settings: for Plate antimicrobial activity test Pyricularia oryzae (level): 25° C., 1 day or 2 days
[6] = tested on: Pseudomonas syringae pv. tomato
[7] = tested on: Botrytis cinerea; test: Botrytis cinerea leaf inoculation test (tomato leaf); format: in vivo; settings: for inhibitory effects against Botrytis cinerea (in words): tomato leaf inoculation test, not shown in the figures
Experimental: In the present example, a suspension comprising Botrytis cinerea and a peptide to be tested was dropped on a plant leaf, and lesions were then observed by visual inspection to evaluate the antimicrobial activity of the tested peptide. First, the pores of Botrytis cinerea were suspended in a potato dextrose broth (PDB) to result in a spore concentration of 5×10^5 spores/ml, so as to prepare a PDB suspension spore solution. Subsequently, a peptide to be tested (TsORF18-2) was added to the PDB suspension spore solution, so that the final concentration of the peptide to be tested became 0 μM, 1 μM, 10 μM or 100 μM. It is to be noted that, as peptides to be tested, TsORF18 (full length) and TsORF18-40 a.a. were also used in the same manner as that of TsORF18-2. TsORF18 (full length) was dissolved in DMSO and was then used. On the other hand, TsORF18-2 and TsORF18-40 a.a were each dissolved in Milli-Q water and were then used. Thereafter, 10 μl each of the PDB suspension spore solution containing the peptide to be tested was dropped on the front side and the back side of the leaf of tomato (variety name: “Ponte Rosa”). In this condition, incubation was carried out at 25° C. for 2 days. Thereafter, the front and back sides of the leaf were observed by visual inspection.

[8] = tested on: Colletotrichum destructivum; test: Colletotrichum destructivum leaf inoculation test (Chinese cabbage leaf); format: in vivo; settings: 25° C.; for lesion of Colletotrichum destructivum (in words): 4 days (FIG. 3); for Leaf inoculation test Chinese cabbage/Colletotrichum destructivum: 4 days, lesions by visual inspection
Text: In the present example, a suspension comprising Colletotrichum destructivum and a peptide to be tested was dropped on a plant leaf, and lesions were then observed by visual inspection to evaluate the antimicrobial activity of the tested peptide. First, the pores of Colletotrichum destructivum were suspended in water to result in a spore concentration of 5×10^5 spores/ml, so as to prepare a water suspension of spores. Subsequently, peptides to be tested (TsORF18 (full length), TsORF18-40 a.a., and TsORF18-2) were each added to the water suspension of spores, so that the final concentration of the peptides to be tested became 0 μM, 1 μM, 10 μM or 100 μM. Thereafter, 10 μl each of the water suspension of spores containing the peptide to be tested was dropped on the front side and the back side of the leaf of Chinese cabbage (variety name: “Kigokoro 85”). In this condition, incubation was carried out at 25° C. for 4 days. Thereafter, the front and back sides of the leaf were observed by visual inspection.

[9] = tested on: Colletotrichum orbiculare; format: cell-based; settings: for Plate antimicrobial activity test Collectotrichum orbiculare (level): 25° C., 1 day or 2 days
[10] = tested on: Xanthomonas oryzae pv. oryzae; settings: for Inhibitory rate Xanthomonas oryzae pv. oryzae / OD600 Xanthomonas oryzae pv. oryzae: peptide 100 μM, 28° C. a whole day and night; for Inhibitory rate Xanthomonas oryzae pv. oryzae: relative to water; for OD600 Xanthomonas oryzae pv. oryzae: water control 2.1
[11] = tested on: Botrytis cinerea; format: cell-based; settings: for Plate antimicrobial activity test Botrytis cinerea (level): 25° C., 1 day or 2 days
[12] = plate test, microscopic observation (FIG. 1), concentration not given

Row | Molecule | Plate antimicrobial activity test Fusarium oxysporum (level) [1] | Inhibitory rate Ralstonia solanacearum [2] [%] | OD600 Ralstonia solanacearum [2] | Plate antimicrobial activity test Colletotrichum destructivum (level) ([3]; peptide 1 μM) | Plate antimicrobial activity test Colletotrichum destructivum (level) ([3]; peptide 10 μM) | Plate antimicrobial activity test Colletotrichum destructivum (level) ([3]; peptide 100 μM) | OD600 Erwinia carotovora subsp. cartovora [4] | Inhibitory rate Erwinia carotovora subsp. cartovora ([4]; 100 μM) [%] | OD600 Pseudomonas syringae pv. tomato [6] | Inhibitory rate Pseudomonas syringae pv. tomato ([6]; 100 μM) [%] | Leaf inoculation test Chinese cabbage/Colletotrichum destructivum ([8]; peptide 1 μM) | Leaf inoculation test Chinese cabbage/Colletotrichum destructivum ([8]; peptide 10 μM) | Leaf inoculation test Chinese cabbage/Colletotrichum destructivum ([8]; peptide 100 μM) | Inhibitory rate Xanthomonas oryzae pv. oryzae [10] [%] | OD600 Xanthomonas oryzae pv. oryzae [10] | Plate antimicrobial activity test Botrytis cinerea (level) ([11]; peptide 1 μM) | Plate antimicrobial activity test Botrytis cinerea (level) ([11]; peptide 10 μM) | Plate antimicrobial activity test Botrytis cinerea (level) ([11]; peptide 100 μM) | inhibitory effects against Botrytis cinerea (in words) [7] | further results
1 | YYGFPAFSERTRKFWRIWKGKT [TsORF18-2] | 3 and 1 and 0 | 13.8 | 2.2 | 0 | 2 | 3 | 2.6 | −39.2 | 1.9 | 25.3 | ∘ | ∘ | ∘ | 90.1 | 0.2 | 1 | 3 | 3 |  | inhibition of germination of Fusarium oxysporum (in words) [1]: completely inhibited; also recorded: could inhibit germination; inhibition of germination of Colletotrichum destructivum (in words) [3, 12]: completely inhibited; also recorded: could inhibit germination; Plate antimicrobial activity test Pyricularia oryzae (level) ([5]; peptide 1 μM): 0; Plate antimicrobial activity test Pyricularia oryzae (level) ([5]; peptide 10 μM): 0; Plate antimicrobial activity test Pyricularia oryzae (level) ([5]; peptide 100 μM): 3; inhibition of germination of Pyricularia oryzae (in words) [5, 12]: completely inhibited; also recorded: could inhibit germination; inhibition of growth of Pseudomonas syringae pv. tomato (in words) ([6]; 100 μM): could inhibit the growth; lesion of Botrytis cinerea (in words) ([7]; 100 μM, tomato leaf, 25° C., 2 days (FIG. 2)): not observed; Leaf inoculation test Tomato/Botrytis cinerea ([7]; peptide 100 μM, tomato leaf, 25° C., 2 days, lesions by visual inspection): ∘; lesion of Colletotrichum destructivum (in words) ([8]; any concentration of 1 μM, 10 μM or 100 μM): not observed; Plate antimicrobial activity test Collectotrichum orbiculare (level) ([9]; peptide 1 μM): 0; Plate antimicrobial activity test Collectotrichum orbiculare (level) ([9]; peptide 10 μM): 1; Plate antimicrobial activity test Collectotrichum orbiculare (level) ([9]; peptide 100 μM): 3; inhibition of germination of Colletotrichum orbiculare (in words) [9, 12]: completely inhibited; also recorded: could inhibit germination; inhibition of growth of Xanthomonas oryzae pv. oryzae (in words) ([10]; summary of Table 4, 100 μM): could inhibit the growth; inhibition of germination of Botrytis cinerea (in words) [11, 12]: completely inhibited; also recorded: could inhibit germination
2 | ILLSLEIFERKFSRSVWYYGFPAFSERTRKFWRIWKGKTS [TsORF18-40aa] | 3 and 0 | −7.7 | 2.8 | 0 | 0 | 3 | 2.2 | −18.1 | 1.9 | 25.8 | Δ | ∘ | ∘ | −5.8 | 2.2 | 0 | 0 | 3 | not observed | lesion of Colletotrichum destructivum (in words) ([8]; concentration of 10 μM or 100 μM): not observed
3 | B1 | 0 | −0.9 | 2.6 | 0 | 0 | 1 | 1.9 |  | 2.6 |  |  |  |  | 6.5 | 2.0 | 0 | 0 | 0 | not observed | Inhibitory rate Erwinia carotovora subsp. cartovora [4]: −3.7%; Inhibitory rate Pseudomonas syringae pv. tomato [6]: −3.1%
